The results in this text go back to DBAASP.

The term MIC denotes the lowest concentration found to suppress growth. Read a high MIC as a less susceptible organism.

Among the test systems are Klebsiella pneumoniae; Bacillus subtilis; Escherichia coli; Salmonella typhimurium; Staphylococcus aureus; Pseudomonas aeruginosa; Bacillus cereus.
What all share (assay): ≥ marks a high value that may be exact or a test limit, other limits are often not marked, values filed in µg/mL are converted to µM
The test system of assay [1] is Bacillus subtilis ATCC 6633.
For assay [2], the system named is Escherichia coli ATCC 25922.
Assay [3] relates to Klebsiella pneumoniae ATCC 700603.
The test system of assay [4] is Pseudomonas aeruginosa ATCC 27853.
Assay [5] concerns Staphylococcus aureus ATCC 25923.
Assay [6] concerns Staphylococcus epidermidis ATCC 12228.
Assay [7] has as its system Acinetobacter baumannii ATCC 19606.
Assay [8] has as its system Bacillus subtilis ATCC 23857.
Assay [9] concerns Enterococcus faecalis ATCC 29212.
Assay [10] concerns Salmonella enterica subsp. enterica serovar Typhimurium ATCC 14028.
In assay [11] the test system is Candida albicans ATCC 10231.
Assay [12] has as its system Klebsiella pneumoniae ATCC 13883.
Assay [13] relates to Staphylococcus aureus ATCC 43300.
For assay [14], the system named is Staphylococcus epidermidis.
The subject of assay [15] is Pseudomonas aeruginosa ATCC 9027.
Assay [16] concerns Escherichia coli DH5alpha.

Molecules are shown by their SMILES. In brackets after ≈: the same amount, converted by molar mass. Where only a bound is given, the exact number is not on record here.

As to `CC(=O)N[C@@H](Cc1ccccc1)C(=O)N[C@@H](CCCCN)C(=O)N[C@@H](CCCCN)C(=O)N[C@@H](CC(C)C)C(=O)N[C@@H](CCCCN)C(=O)N[C@@H](CCCCN)C(=O)N[C@@H](CC(C)C)C(=O)N[C@@H](Cc1ccccc1)C(=O)N[C@@H](CO)C(=O)N[C@@H](CCCCN)C(=O)N[C@@H](CC(C)C)C(=O)N[C@@H](CCCCN)C(=O)N[C@@H](CC(N)=O)C(=O)N[C@@H](Cc1c[nH]c2ccccc12)C(=O)N[C@@H](Cc1c[nH]c2ccccc12)C(N)=O` [FKKLKKLFSKLKNWW], the MIC in assay [1] amounted to 1.6 µM (≈ 3.26 µg/mL); in assay [2], 1.6 µM (≈ 3.26 µg/mL); in [3], 3.2 µM (≈ 6.51 µg/mL); in assay [4] it was 3.2 µM (≈ 6.51 µg/mL); in assay [5], 3.2 µM (≈ 6.51 µg/mL); in assay [6], 1.6 µM (≈ 3.26 µg/mL).
`C[C@H](NC(=O)[C@H](C)NC(=O)[C@@H](NC(=O)[C@H](CCCCN)NC(=O)[C@H](C)NC(=O)[C@H](CCCN=C(N)N)NC(=O)[C@H](CCCCN)NC(=O)[C@H](C)NC(=O)[C@H](C)NC(=O)CN)[C@@H](C)O)C(N)=O` [GAAKRAKTAA]: the MIC is > 512 µM in assay [7]; ≥ 512 µM in assay [8]; > 512 µM in assay [9]; > 512 µM in assay [2]; > 512 µM in assay [3]; > 512 µM in [4]. The MIC in assay [5] and in assay [6] was > 512 µM in each case.
For `CC[C@H](C)[C@H](NC(=O)[C@H](Cc1ccc(O)cc1)NC(=O)[C@@H](NC(=O)[C@@H]1CCCN1C(=O)[C@H](CCCN=C(N)N)NC(=O)[C@H](CC(N)=O)NC(=O)[C@H](CC(N)=O)NC(=O)CN)C(C)C)C(=O)N1CCC[C@H]1C(=O)N[C@@H](CCC(N)=O)C(=O)N1CCC[C@H]1C(=O)N[C@@H](CCCN=C(N)N)C(=O)N1CCC[C@H]1C(=O)N[C@@H](Cc1cnc[nH]1)C(=O)N1CCC[C@H]1C(=O)N[C@@H](CCCN=C(N)N)C(=O)N[C@@H](CC(C)C)C(=O)O` [GNNRPVYIPQPRPHPRL], the figures for the MIC (in assay [2]; in the assay on Klebsiella pneumoniae; in assay [10]) were 128 µM (≈ 257 µg/mL), > 128 µM and > 128 µM, respectively.
As for `CC(C)[C@H](NC(=O)CNC(=O)[C@H](CCCN=C(N)N)NC(=O)[C@@H](NC(=O)[C@@H](NC(=O)[C@@H](NC(=O)[C@H](CCCN=C(N)N)NC(=O)CNC(=O)[C@@H](NC(=O)[C@H](CCCN=C(N)N)NC(=O)[C@@H](NC(=O)[C@@H](NC(=O)[C@@H](NC(=O)CN)C(C)C)C(C)C)C(C)C)C(C)C)C(C)C)C(C)C)C(C)C)C(=O)N[C@@H](CCCN=C(N)N)C(=O)N[C@@H](CCCN=C(N)N)C(N)=O` [GVVVRVGRVVVRGVRR], the MIC in the assay on Bacillus subtilis came to 8 µM (≈ 14.1 µg/mL); against Escherichia coli, 8 µM (≈ 14.1 µg/mL); against Salmonella typhimurium, 8 µM (≈ 14.1 µg/mL); with Staphylococcus aureus it was 16 µM (≈ 28.2 µg/mL).
Take `CC[C@H](C)[C@H](NC(=O)[C@H](CCCN=C(N)N)NC(=O)[C@H](CCCCN)NC(=O)[C@H](Cc1ccccc1)NC(=O)[C@H](Cc1c[nH]c2ccccc12)NC(=O)CN)C(=O)N[C@@H](CCCCN)C(=O)N[C@H](C(=O)N[C@@H](Cc1ccccc1)C(=O)N[C@@H](Cc1c[nH]c2ccccc12)C(N)=O)[C@@H](C)O` [GWFKRIKTFW]: the MIC came to 64 µM (≈ 87.5 µg/mL) in assay [7]; 4 µM (≈ 5.47 µg/mL) in assay [8]; 64 µM (≈ 87.5 µg/mL) in assay [9]; 16 µM (≈ 21.9 µg/mL) in [2]; 32 µM (≈ 43.8 µg/mL) in assay [3]; 8 µM (≈ 10.9 µg/mL) in assay [4]. The figures for the MIC in assay [5] and in [6] were 16 µM (≈ 21.9 µg/mL) and 4 µM (≈ 5.47 µg/mL), respectively.
On to `CC(C)[C@H](NC(=O)CNC(=O)[C@@H](N)Cc1cnc[nH]1)C(=O)N[C@@H](CO)C(=O)NCC(=O)N[C@@H](Cc1cnc[nH]1)C(=O)NCC(=O)N[C@@H](CCC(N)=O)C(=O)N[C@@H](Cc1cnc[nH]1)C(=O)NCC(=O)N[C@H](C(=O)N[C@@H](Cc1cnc[nH]1)C(=O)NCC(=O)O)C(C)C` [HGVSGHGQHGVHG], for which the MIC is > 101 µM in assay [11]; > 101 µM in assay [9]; 12.6 µM (≈ 16 µg/mL) with Escherichia coli; 12.6 µM (≈ 16 µg/mL) in assay [12]; 12.6 µM (≈ 16 µg/mL) against Klebsiella pneumoniae; 25.3 µM (≈ 32 µg/mL) with Pseudomonas aeruginosa. For the same compound, the MIC is 12.6 µM (≈ 16 µg/mL) in [5], > 101 µM in [13], 50.6 µM (≈ 64 µg/mL) in the assay with Staphylococcus aureus and 25.3 µM (≈ 32 µg/mL) in assay [14].
On to `CC[C@H](C)[C@H](NC(=O)CNC(=O)[C@H](CCCN=C(N)N)NC(=O)[C@H](C)NC(=O)[C@H](CCSC)NC(=O)[C@@H]1CCCN1C(=O)[C@H](C)NC(=O)CNC(=O)[C@H](CCC(=O)O)NC(=O)[C@H](CC(C)C)NC(=O)[C@@H]1CCCN1C(=O)[C@H](CC(=O)O)NC(=O)[C@H](Cc1ccccc1)NC(=O)[C@@H](N)CCCCN)C(=O)N[C@H](C(=O)N[C@@H](CC(C)C)C(=O)N[C@@H](CCC(=O)O)C(=O)N[C@@H](CCCCN)C(=O)N[C@H](C(=O)NCC(=O)O)C(C)C)C(C)C` [KFDPLEGAPMARGIVLEKVG], for which the MIC was ≥ 120 µM in the assay on Bacillus cereus and > 120 µM in the assay on Escherichia coli.
Regarding `NCCCC[C@H](NC(=O)[C@H](CCCCN)NC(=O)[C@H](Cc1c[nH]c2ccccc12)NC(=O)[C@H](CCCN=C(N)N)NC(=O)[C@H](CCCCN)NC(=O)[C@H](Cc1c[nH]c2ccccc12)NC(=O)[C@H](Cc1c[nH]c2ccccc12)NC(=O)[C@@H](N)CCCCN)C(=O)N[C@@H](Cc1c[nH]c2ccccc12)C(=O)N[C@@H](Cc1c[nH]c2ccccc12)C(N)=O` [KWWKRWKKWW], the MIC in assay [7] was found to be 8 µM (≈ 12.9 µg/mL); in [8], 4 µM (≈ 6.47 µg/mL); in assay [9], 16 µM (≈ 25.9 µg/mL); in assay [2], 16 µM (≈ 25.9 µg/mL); in assay [3], 16 µM (≈ 25.9 µg/mL); in [4], 8 µM (≈ 12.9 µg/mL). Further, the minimal inhibitory concentration (MIC) in [5] and in [6] was 8 µM (≈ 12.9 µg/mL) throughout.
As to `CC(C)C[C@H](NC(=O)[C@H](C)NC(=O)[C@H](CCCCN)NC(=O)[C@H](CC(C)C)NC(=O)[C@H](CC(N)=O)NC(=O)[C@@H](N)CC(C)C)C(=O)N[C@@H](CC(C)C)C(=O)N[C@@H](C)C(=O)N[C@H](C(=O)N[C@@H](C)C(=O)N[C@@H](CCCCN)C(N)=O)C(C)C` [LNLKALLAVAK], the MIC is ≥ 128 µM in assay [8]; > 128 µM in assay [2]; > 128 µM in assay [3]; > 128 µM in [15]; > 128 µM in assay [5].
Consider `CC[C@H](C)[C@H](NC(=O)[C@@H](NC(=O)[C@H](C)NC(=O)[C@@H]1CCCN1C(=O)[C@H](Cc1ccccc1)NC(=O)[C@@H](NC(=O)[C@H](CCCCN)NC(=O)[C@H](CO)NC(=O)[C@H](C)NC(=O)[C@@H](NC(=O)[C@H](CCCN=C(N)N)NC(=O)CNC(=O)[C@@H](NC(=O)[C@@H](NC(=O)[C@@H]1CCCN1)C(C)C)C(C)C)C(C)C)C(C)C)C(C)C)C(=O)NCC(=O)N[C@@H](CC(C)C)C(=O)N[C@H](C(=O)N[C@@H](CCCCN)C(=O)N[C@@H](CCCCN)C(=O)O)C(C)C` [PVVGRVASKVFPAVIGLVKK], for which the results for the MIC with Bacillus cereus and in the assay on Escherichia coli were ≥ 124 µM and > 124 µM, respectively.
In the same order, the values of `CC[C@H](C)[C@H](NC(=O)[C@H](Cc1ccc(O)cc1)NC(=O)[C@@H](NC(=O)[C@@H](NC(=O)[C@H](C)NC(=O)[C@@H]1CCCN1C(=O)[C@@H](NC(=O)[C@H](CO)NC(=O)[C@H](CS)NC(=O)[C@H](CCCCN)NC(=O)[C@@H](NC(=O)[C@H](CCCCN)NC(=O)[C@@H](N)C(C)C)[C@@H](C)O)C(C)C)C(C)C)C(C)C)C(=O)N[C@@H](CC(C)C)C(=O)N[C@H](C(=O)N[C@@H](CCCCN)C(=O)N[C@H](C(=O)N[C@@H](Cc1ccccc1)C(=O)N[C@@H](CCCCN)C(=O)N[C@@H](CO)C(=O)O)[C@@H](C)O)C(C)C` [VKTKCSVPAVVYILVKTFKS] are ≥ 116 µM and > 116 µM.
With `CC[C@H](C)[C@H](NC(=O)[C@H](Cc1ccccc1)NC(=O)[C@@H](NC(=O)[C@H](CC(C)C)NC(=O)[C@H](CCCN=C(N)N)NC(=O)[C@H](CCCCN)NC(=O)[C@H](CCCN=C(N)N)NC(=O)[C@H](CCCCN)NC(=O)[C@H](CC(C)C)NC(=O)[C@H](CC(C)C)NC(=O)[C@@H](NC(=O)[C@@H](N)Cc1ccc(O)cc1)C(C)C)[C@@H](C)CC)C(=O)O` [YVLLKRKRLIFI], the MIC with Bacillus subtilis is ≥ 200 µM; in assay [16] it was ≥ 50 µM; in assay [4], > 200 µM; in assay [5], > 200 µM.
